We go through 34 compounds from US5389663A, “1-(1h-1,2,4-triazole-yl)-2-propanol compounds” (Takeda Chemical Industries, Ltd., priority 1991, dated 1995).

In one test the test system is Candida albicans IFO 0583. The experiment in a line: Paper disc agar diffusion, growth inhibition zone, Candida albicans IFO 0583. As to conditions: Candida albicans, IFO0583, 48 h, Table 5; Medium A, 28° C., two-day culture, 1000 μ/ml, 8 mm disc; read-out: Diameter of growth-inhibition zone. The class given is cell-based. Here is the method:
Evaluation of the antifungal activities of the compound of formula (I) was conducted by the following method: a sheet of filter paper disc (manufactured by Toyo Seisakusho, 8 mm in diameter) soaked in a […] solution of a compound of formula (I) in methanol was placed on an agar plate containing various fungi, which was incubated at 28° C. for two days, and the diameter of the growth inhibition zone around the filter paper disc was measured. The following culture media were used: A: yeast nitrogen base agar medium (pH 7.0) B: Sabouraud agar medium
cpd. No. (Medium A, 28° C., two-day culture)
Take `C[C@H]([C@](O)(Cn1cncn1)c1ccc(F)cc1F)S(=O)(=O)N(C)C/C=C\C#CC(C)(C)C` [Compound 69]: the zone of inhibition at 1000 µg/mL came out at 42 mm.
The same measure, in the same setting: in the case of `C[C@H]([C@](O)(Cn1cncn1)c1ccc(F)cc1F)S(=O)(=O)N1CCN(c2ccccn2)CC1` [Compound 74, 4-[(2R,3R)-3-(2,4-difluorophenyl)-3-hydroxy-4-(1H-1,2,4-triazol-1-yl)-2-butanesulfonyl]-1-(2-pyridyl) piperazine] it was 44 mm; in that of `C[C@H]([C@](O)(Cn1cncn1)c1ccc(F)cc1F)S(=O)(=O)N(C)Cc1ccc(C(F)(F)F)cc1F` [Compound 67, N-(2-fluoro-4-trifluoromethylbenzyl)-N-methyl-[(2R,3R)-3-(2,4-difluorophenyl)-3-hydroxy-4-(1H-1,2,4-triazol-1-yl)-2-butane]sulfonamide], 42 mm; in that of `C[C@H]([C@](O)(Cn1cncn1)c1ccc(F)cc1F)S(=O)(=O)N1CCNCC1` [Compound 20, 1-[(2R,3R)-3-(2,4-difluorophenyl)-3hydroxy-4-(1H-2,4-triazol-1-yl)-2-butylsulfonyl]piperazine], 22 mm.
Same read-out and setting: in the case of `CCCCNS(=O)(=O)C(C)=C(Cn1cncn1)c1ccc(F)cc1F` (single isomer, unassigned) [Compound 32, N-butyl-3-(2,4-difluorophenyl)-4-(1H-1,2,4-triazol-1-yl) -2-butene-2-sulfonamide] it was 12 mm; in that of `C[C@H]([C@](O)(Cn1cncn1)c1ccc(F)cc1F)S(=O)(=O)N1CCN(C(=O)OC(C)(C)C)CC1` [Compound 19, 1-tert-butoxycarbonyl-4-[(2R,3R)-3-(2,4-difluorophenyl)-3-hydroxy-4-(1H-i,2,4-triazol-1-yl) -2-butylsulfonyl]piperazine], 40 mm; in that of `CCCCCCCCCCCCN(C)S(=O)(=O)[C@H](C)[C@](O)(Cn1cncn1)c1ccc(F)cc1F` [Compound 61, N-dodecyl-N-methyl-[(2R,3R)-3-(2,4-difluorophenyl)-3-hydroxy-4-(1H-1,2,4-triazol-1-yl)-2-butane]sulfonamide], 18 mm.
Same read-out and setting: the same measure for `CCC(C)n1ncn(-c2ccc(N3C=CN(S(=O)(=O)[C@H](C)[C@](O)(Cn4cncn4)c4ccc(F)cc4F)CC3)cc2)c1=O` (stereo partly drawn) [Compound 43, 1-[4-[2-(2-butyl)-2,3-dihydro-3-oxo-4H-1,2,4-triazol-4-yl]phenyl]-4-[(2R,3R)-3-(2,4-difluorophenyl)-3-hydroxy-4-(1H-1,2,4-triazol-1-yl)-2-butanesulfonyl]-1,2,3,4-tetrahydropyrazine]: 35 mm; for `CC(=O)Nc1nc(C)c(S(=O)(=O)N(C)[C@H](C)[C@](O)(Cn2cncn2)c2ccc(F)cc2F)s1` [Compound 89]: 35 mm.
Turning to `C[C@H]([C@](O)(Cn1ccnc1)c1ccc(F)cc1F)S(=O)(=O)N(C)C` [Compound 85, N,N-dimethyl-[(2R,3R)-3-(2,4-difluorophenyl)-3-hydroxy-4-(1-imidazolyl)-2-butane]sulfonamide], the zone of inhibition at 1000 µg/mL came to 45 mm.
On the same count and under the same terms, in the case of `C[C@@H](NS(=O)(=O)c1cccs1)[C@](O)(Cn1cncn1)c1ccc(F)cc1F` [Compound 87] it was 38 mm.
Take `CC(=C(Cn1cncn1)c1ccc(F)cc1F)S(=O)(=O)N(C)C` (single isomer, unassigned) [Compound 34, N,N-dimethyl-3-(2,4-difluorophenyl)-4-(1H-1,2,4-triazol-1-yl)-2-butene-2-sufonamide]: the zone of inhibition at 1000 µg/mL worked out at 15 mm.
Same read-out and setting: the same measure for `C[C@H]([C@](O)(Cn1cncn1)c1ccc(F)cc1F)S(=O)(=O)N(C)Cc1ccc(C(F)(F)F)cc1` [Compound 66, N-methyl-N-(4-trifluoromethylbenzyl)-[(2R,3R)-3-(2,4-difluorophenyl)-3-hydroxy-4-(1H-1,2,4-triazol-1-yl)-2-butane]sulfonamide]: 42 mm; for `C[C@@H](NS(=O)(=O)CCCCl)[C@](O)(Cn1cncn1)c1ccc(F)cc1F` [Compound 56]: 30 mm; for `C[C@@H](N(C)S(=O)(=O)c1nccn1C)[C@](O)(Cn1cncn1)c1ccc(F)cc1F` [Compound 88]: 46 mm.
The same measure, in the same setting: the same measure for `C[C@H]([C@](O)(Cn1cncn1)c1ccc(F)cc1F)S(=O)(=O)N(C)Cc1ccccc1` [Compound 47, N-benzyl-N-methyl-[(2R,3R)-3-(2,4-difluorophenyl)-3-hydroxy-4-(1H-1,2,4-triazol-1-yl)-2-butane]sulfonamide]: 45 mm; for `CSc1nnc(CN(C)S(=O)(=O)[C@H](C)[C@](O)(Cn2cncn2)c2ccc(F)cc2F)s1` [Compound 82]: 40 mm; for `CC(=O)N1CCN(S(=O)(=O)[C@H](C)[C@](O)(Cn2cncn2)c2ccc(F)cc2F)CC1` [Compound 25, 1-acetyl-4-[(2R,3R)-3-(2,4-difluorophenyl)-3-hydroxy-4-(1H-1,2,4-triazol-1-yl)-2-butylsulfonyl]piperazine]: 30 mm.
On the same count and under the same terms, the same measure for `C[C@@H](SNC1CCCCC1)[C@](O)(Cn1cncn1)c1ccc(F)cc1F` [Compound 5]: 35 mm.
As to `COc1ccc(CNS(=O)(=O)[C@H](C)[C@](O)(Cn2cncn2)c2ccc(F)cc2F)cc1OC` [Compound 60, N-(3,4-dimethoxybenzyl)-[(2R,3R)-3-(2,4-difluorophenyl)-3-hydroxy-4-(1H-1,2,4-triazol-1-yl)-2-butane]sulfonamide], the zone of inhibition at 1000 µg/mL came to 35 mm.
Same read-out and setting: the same measure for `C[C@H]([C@](O)(Cn1cncn1)c1ccc(F)cc1F)S(=O)(=O)N1CCN(c2ccc(-n3cnn(CC(F)(F)F)c3=O)cc2)CC1` [Compound 44, 1-[4-[2-(2,2,2-trifluoroethyl)-2,3-dihydro-3-oxo-4H-1,2,4-triazol-4-yl]phenyl]-4-[(2R,3R)-3-(2,4-difluorophenyl)-3-hydroxy-4-(1H-1,2,4-triazol-1-yl)-2-butanesulfonyl]piperazine]: 33 mm; for `C[C@H]([C@](O)(Cn1cncn1)c1ccc(F)cc1F)S(=O)(=O)N(C)c1ncccn1` [Compound 77, N-methyl-N-(2-pyrimidinyl)-[(2R,3R)-3-(2,4-difluorophenyl)-3-hydroxy-4-(1H-1,2,4-triazol-1-yl)-2-butane]sulfonamide]: 40 mm; for `CCC(C)n1ncn(-c2ccc(N3CCN(S(=O)(=O)[C@H](C)[C@](O)(Cn4cncn4)c4ccc(F)cc4F)CC3)cc2)c1=O` (stereo partly drawn) [Compound 42, 1-[4-[2-(2-butyl)-2,3-dihydro-3-oxo-4H-1,2,4-triazol-4-yl]phenyl]-4-[(2R,3R)-3-(2,4-difluorophenyl)-3-hydroxy-4-(1H-1,2,4-triazol-1-yl)-2-butanesulfonyl]piperazine]: 40 mm.
Same read-out and setting: the same measure for `C[C@H]([C@](O)(Cn1cncn1)c1ccc(F)cc1F)S(=O)(=O)N1CCN(Cc2nncn2C)CC1` [Compound 26, 1-[(2R,3R)-3-(2,4-difluorophenyl)-3-hydroxy-4-(1H-1,2,4-triazol-1-yl)-2-butylsulfonyl]-4-(4-methyl-4H-1,2,4-triazol-3-ylmethyl) piperazine]: 20 mm; for `CSc1nnc(CCN(C)S(=O)(=O)[C@H](C)[C@](O)(Cn2cncn2)c2ccc(F)cc2F)s1` [Compound 83]: 40 mm.
Consider `C[C@@H](SN1CCN(C(=O)OC(C)(C)C)CC1)[C@](O)(Cn1cncn1)c1ccc(F)cc1F` [Compound 17, N-tert-butoxycarbonyl-4-[(2R,3R)-3-(2,4-difluorophenyl)-3-hydroxy-4-(1H-1,2,4-triazol-1-yl)-2-butylsulfenyl]piperazine], for which the zone of inhibition at 1000 µg/mL turned out to be 40 mm.
Same read-out and setting: in the case of `C[C@@H](NS(=O)(=O)c1ccc(N)cc1)[C@](O)(Cn1cncn1)c1ccc(F)cc1F` [Compound 52] it was 35 mm; in that of `C[C@H]([C@](O)(Cn1cncn1)c1ccc(F)cc1F)S(=O)(=O)N1CCN(C(=O)c2ccc(C(F)(F)F)cc2)CC1` [Compound 24, 1-[(2R,3R)-3-(2,4-difluorophenyl)-3-hydroxy-4-(1H-1,2,4-triazol-1-yl)-2-butylsulfonyl]-4-(4-trifluoromethylbenzoyl)piperazine], 37 mm.
As for `C[C@@H](SN1CCOCC1)[C@](O)(Cn1cncn1)c1ccc(F)cc1F` [Compound 7, N-[(2R,3R)-3-(2,4-difluorophenyl)-3-hydroxy-4-(1H-1,2,4-triazol-1-yl) -2-butylsulfenyl]morpholine], the zone of inhibition at 1000 µg/mL is 33 mm.
Still for that read-out and setting: the same measure for `C[C@H]([C@](O)(Cn1cncn1)c1ccc(F)cc1F)S(=O)(=O)NCc1nncn1C` [Compound 41, N-(4-methyl-4H-1,2,4-triazol-3-ylmethyl)-[(2R,3R)-3-(2,4-difluorophenyl)-3-hydroxy-4-(1H-1,2,4-triazol-1-yl)-2-butane]sulfonamide]: 23 mm; for `C[C@H]([C@](O)(Cn1cncn1)c1ccc(F)cc1F)S(=O)(=O)N(C)CCc1nnc(S(C)(=O)=O)s1` [Compound 84]: 23 mm; for `C[C@H]([C@](O)(Cn1cncn1)c1ccc(F)cc1F)S(=O)(=O)N1CCN(c2ncncc2F)CC1` [Compound 92]: 53 mm.
The same measure, in the same setting: the same measure for `C[C@@H]([S+]([O-])N1CCN(C(=O)OC(C)(C)C)CC1)[C@](O)(Cn1cncn1)c1ccc(F)cc1F` (stereo partly shown) [Compound 18]: 37 mm.

Still in this test, the particulars now being: Table 5; Medium A, 28° C., two-day culture, 1000 μ/ml, 8 mm disc.
Consider `CC(=C(Cn1cncn1)c1ccc(F)cc1F)S(=O)(=O)N1CCN(c2ccccc2)CC1` (single isomer, unassigned) [Compound 30, 1-[3-(2,4-difluorophenyl)-4-(1H-1,2,4-triazol-1-yl)-2-buten-2-ylsulfonyl]-4-phenylpiperazine], for which the “Diameter of growth-inhibition zone” value is listed as 12 mm.
